Measured values from patent publication US9441016B2, “Complete genome sequence of the methanogen Methanobrevibacter ruminantium” (Pastoral Greenhouse Gas Research Ltd., priority 2009, dated 2016).
Blank lines part the entries; values can stand above or below the compound they belong to.

Tests used:
M. ruminantium M1 [1] = test: Effect of the lytic enzyme PeiR on M1 growth in vitro (culture density, methane); assay type: cell-based, Methanobrevibacter ruminantium
Description: M1 was grown in medium RM02 in anaerobic culture tubes (16 mm internal diameter, 18 mm outer diameter, 150 mm long; Bellco Glass, Vineland, N.J., USA), essentially as described by Balch and Wolfe, 1976. The mineral salts base of RM02 contained (per liter of medium): 1.4 g of KH2PO4, 0.6 g of (NH4)2SO4, 1.5 g of KCl, 1 ml trace element solution […] et al., 1983), 1 ml of selenite/tungstate solution ([…] and […], 1984) and 4 drops of 0.1% (w/v) resazurin solution. This solution was mixed and then boiled under O2-free 100% CO2, before being cooled in an ice bath while it was bubbled with 100% CO2. Once the medium was cool, 4.2 g of NaHCO3 and 0.5 g of L-cysteine.HCl.H2O was added per liter. […] In the experiments testing the effects of PeiR addition, the culture densities were mathematically normalised to an OD600 of 0.1 at the time the additions were made, and all other readings corrected by the same ratio. […] Methane was measured by gas chromatography, taking a 0.3 ml sample from the culture headspace, at the pressure in the culture tube, and injecting it into an Aerograph 660 (Varian Associates, Palo Alto, Calif., USA) fitted with a Porapak Q 80/100 mesh column (Waters Corporation, Milford, Mass., USA) and a thermal conductivity detector operated at 100° C. […]

[2] = system: Mbb. ruminantium A1Ao ATP synthase; test: ATP hydrolysis by A1Ao ATP synthase with inhibitors (inorganic phosphate assay); assay type: biochemical, Methanobrevibacter ruminantium; settings: in high concentrations
Description: Two enzyme preparations were studied. Purified ATP synthase from BL21 and recombinant enzyme expressed in E. coli DK8 membranes. Purified […] ATP synthase was examined for ATPase activity using the inorganic phosphate assay. […] TBT is a well characterized Fo and Ao channel inhibitor of ATP synthases. To examine the coupling ion used by the Mbb. ruminantium […] ATP synthase, the effect of amiloride, a known Na^+-coupled V-type ATPase and Na^+ channel inhibitor was also examined. […] E. coli DK8 (Δatp) inverted membranes containing the recombinant […]-ATPase were used to determine the effects of the inhibitors TBT (200 μM) and DCCD (250 μM) at different pH values. ATPase activity was measured in presence of 130 mM Na^+ (FIG. 30A) and in absence of Na^+ (FIG. 30B). After preincubation with the inhibitor for 20 min at room temperature ([…]), the reaction was started at 39° C. by addition of Na2-ATP or Tris-ATP to a final concentration of 2.5 mM. 0.5 mg inverted membrane vesicles was used in each end-point assay. […] FIGS. 30A and 30B). […] FIG. 30C). Amiloride inhibition of ATP hydrolysis of the Mbb. ruminantium […] ATP synthase was evaluated next. […] FIG. 30D). […] FIG. 31A). Amiloride inhibition of ATP hydrolysis of purified recombinant Mbb. ruminantium […] ATP synthase was further tested in DK8 and native membranes. […] FIG. 31B).

[3] = target: 3-hydroxy-3-methylglutaryl-CoA reductase (HMGR) (Methanobrevibacter ruminantium, UniProt D3E332); test: HMGR activity assay measuring oxidation of NADPH; assay type: biochemical; settings: for Km: substrate of HMGR, assays at 37° C, pH 6.5
M. ruminantium M1 [4] = test: Stimulation of growth of M1 by alcohols; assay type: cell-based, Methanobrevibacter ruminantium; settings: for culture density (OD600 nm): M1 grown on H2, compared to H2 alone
Description: M1 was grown in medium RM02 in anaerobic culture tubes (16 mm internal diameter, 18 mm outer diameter, 150 mm long; Bellco Glass, Vineland, N.J., USA), essentially as described by Balch and Wolfe, 1976. The mineral salts base of RM02 contained (per liter of medium): 1.4 g of KH2PO4, 0.6 g of (NH4)2SO4, 1.5 g of KCl, 1 ml trace element solution […] et al., 1983), 1 ml of selenite/tungstate solution ([…] and […], 1984) and 4 drops of 0.1% (w/v) resazurin solution. This solution was mixed and then boiled under O2-free 100% CO2, before being cooled in an ice bath while it was bubbled with 100% CO2. Once the medium was cool, 4.2 g of NaHCO3 and 0.5 g of L-cysteine.HCl.H2O was added per liter. The medium was dispensed into the culture tubes while being gassed with 100% CO2, at 9.5 ml of medium per tube, and the tubes sealed with blue butyl septum stoppers and aluminium seals (Bellco), with a headspace of 100% CO2. These tubes were sterilised by autoclaving for 20 min at 121° C. Before use, the tubes were stored in the dark for at least 24 h. Sodium acetate (20 mM final conc.), sodium formate (60 mM final conc.), coenzyme M (10 μM final conc.), and vitamin-supplemented clarified rumen fluid were added to sterile media, before inoculation with 0.5 ml of an actively growing culture of M. ruminantium, then gassed with H2 plus CO2 (4:1) to 180 kPa overpressure. In some experiments, the formate was omitted, and alcohols were added, as noted in the experimental descriptions accompanying the results. The culture tubes were incubated on their sides, at 39° C. in the dark, on a platform shaken at 200 rpm. Growth of M1 was followed by measuring the culture density at 600 nm by inserting the tubes directly into an Ultrospec 1100 pro UV/Vis spectrophotometer (Amersham Biosciences, Little Chalfont, Buckinghamshire, UK). […] In the experiments testing the effects of PeiR addition, the culture densities were mathematically normalised to an OD600 of 0.1 at the time the additions were made, and all other readings corrected by the same ratio. This was done to remove the effect of lack of absolute synchronicity between cultures, a common phenomenon when culturing methanogens. This normalisation was not done for experiments testing the utilisation of alcohols. Methane was measured by gas chromatography, taking a 0.3 ml sample from the culture headspace, at the pressure in the culture tube, and injecting it into an Aerograph 660 (Varian Associates, Palo Alto, Calif., USA) fitted with a Porapak Q 80/100 mesh column (Waters Corporation, Milford, Mass., USA) and a thermal conductivity detector operated at 100° C. The column was operated at room temperature with N2 as the carrier gas at 12 cm^3/min.

SMILES: ClC(Cl)Cl [Chloroform]
methane yield (M. ruminantium M1 [1]; 0.1 ml added to 10 ml culture at mid-exponential phase): similarly reduced methane yield
culture density (M. ruminantium M1 [1]; 0.1 ml added to 10 ml culture, compared with PeiR): decrease in culture density was less

SMILES: C(=NC1CCCCC1)=NC1CCCCC1 [DCCD]
ATP hydrolysis activity, sensitivity to inhibitor [2]: sensitive

Km [3]: 12.4 ± 1.83 µM
SMILES: CC(C)(CO[P@@](=O)(O)O[P@@](=O)(O)OC[C@H]1O[C@@H](n2cnc3c(N)ncnc32)[C@H](O)[C@@H]1OP(=O)(O)O)[C@@H](O)C(=O)NCCC(=O)NCCSC(=O)C[C@@](C)(O)CC(=O)O [HMG-CoA]

Km [3]: 165 ± 35 µM
SMILES: NC(=O)C1=CN([C@@H]2O[C@H](COP(=O)(O)OP(=O)(O)OC[C@H]3O[C@@H](n4cnc5c(N)ncnc54)[C@H](OP(=O)(O)O)[C@@H]3O)[C@@H](O)[C@H]2O)C=CC1 [NADPH]

SMILES: CCC[CH2][Sn]([CH2]CCC)[CH2]CCC [TBT, tributylin]
ATP hydrolysis activity, sensitivity to inhibitor [2]: sensitive

SMILES: N=C(N)NC(=O)c1nc(Cl)c(N)nc1N [amiloride]
ATP hydrolysis activity, sensitivity to inhibitor [2]: sensitive

SMILES: CCO [ethanol]
growth (M. ruminantium M1 [4]; 20 mM, M1 grown on H2): some inhibition of growth
culture density (OD600 nm) (M. ruminantium M1 [4]; 5 or 10 mM): increase in culture density
growth (M. ruminantium M1 [4]; no H2 added): No growth occurred
methane formation (M. ruminantium M1 [4]; no H2 added): no methane was formed

SMILES: CC(C)O [isopropanol]
stimulation of growth (M. ruminantium M1 [4]; 5 to 20 mM, M1 grown on H2): no stimulation
growth (M. ruminantium M1 [4]; no H2 added): No growth occurred
methane formation (M. ruminantium M1 [4]; no H2 added): no methane was formed

SMILES: CC[C@H](C)C(=O)O[C@H]1C[C@@H](C)C=C2C=C[C@H](C)[C@H](CC[C@@H]3C[C@@H](O)CC(=O)O3)[C@H]21 [lovastatin, reference compound]
Ki [3]: 8.5 ± 1.1 µM

SMILES: CO [methanol]
culture density (OD600 nm) (M. ruminantium M1 [4]; 20 mM): increase in culture density
growth (M. ruminantium M1 [4]; no H2 added): No growth occurred
methane formation (M. ruminantium M1 [4]; no H2 added): no methane was formed

SMILES: CCC(C)(C)C(=O)O[C@H]1C[C@@H](C)C=C2C=C[C@H](C)[C@H](CC[C@@H]3C[C@@H](O)CC(=O)O3)[C@H]21 [simvastatin, reference compound]
Ki [3]: 3.7 ± 0.65 µM
